Data taken from patent publication US7601850B2, “Phenyl-thiophene type vitamin D receptor modulators” (Eli Lilly and Company, priority 2002, dated 2009).
Read-outs that look alike come from different tables or passages of the source.

Tests used:
[1] = tested on: IL-10 production in peripheral blood mononuclear cells (PBMCs); experiment: Human IL-10 induction assay in PBMCs; assay type: cell-based; settings: TPA/PHA stimulated human PBMCs, IL-10 in supernatant by immunoassay
Source text: 7. The IL-10 induction assay is described in the “Assay” section of the Description, infra.
The evaluation of the novel compounds of the invention for psoriasis is done using the Keratinocyte Proliferation Assay in combination with other assays that measure inhibition of IL-2 production and stimulation of IL-10 production in peripheral blood mononuclear cells (PBMCs).
6. The IL-1 Induction Assay
This is an in vitro efficacy assay for psoriasis, abscess and adhesion. Psoriasis involves both keratinocytes and immune cells. IL-10 is a unique cytokine because it is anti-inflammatory and immunosuppressive. This assay tells us whether a VDRM is able to function as an agonist in PBMCs (primary blood mononuclear cells) or not. A lower EC50 value is desirable in this assay since a compound with a lower EC50 value will be a better agonist in PBMCs. An acceptable test result is an EC50 value of less than 200 nM.
(6) Materials and Method for Human IL-10 Induction Assay:
Isolation of peripheral blood mononuclear cells (PBMCs):
• A. Collect 50 ml of human blood and dilute with media, RPMI-1640. • B. Prepare sterile tubes with ficol. • C. Add diluted blood to tubes. • D. Centrifuge. • E. Discard the top layer and collect the cells from middle layer. • F. Divide all cells into four tubes and add media. • G. Centrifuge. • H. Aspirate off media and resuspend. • I. Collect all cells • J. Centrifuge. at 1200 rpm for 10 minutes. • K. Resuspend in RPMI-1640 with 2% FBS and count cells • Stimulation of PBMC: • L. Prepare TPA in DMSO. • M. Dissolve PHA in water. • N. Plate TPA/PHA treated PBMCs in well plates. • O. Incubate. • Treatment: • P. Prepare all compound dilutions in plain RPMI-1640 media. • Q. Add diluted compound. • R. Incubate. • Sample Collection and assay: • S. Remove all the cells by centrifugation and assay the supernatant for IL-10 by immunoassay. • 1) T. Perform IL-10 assay using anti-human IL-10 antibody coated beads, as described by the manufacturer (Linco Research Inc., St. Charles, Mo.).

KERtr cells = experiment: Keratinocyte proliferation assay (BrdU incorporation); assay type: cell-based; settings: KERtr human skin keratinocytes, 72 hr treatment, read-out: Kera. Prolif. IC50
Protocol: 6. The keratinocyte proliferation assay is described in the “Assay” section of the Description, infra.
5. The Keratinocyte Proliferation Assay
This Assay is indicative for the treatment of psoriasis.
(5) The Keratinocyte Proliferation Assay:
KERtr cells (Human skin keratinocyte transformed with a retrovirus vector, obtained from ATCC) were plated in 96-well flat-bottomed plates (3000 cells/well) in 100 µl keratinocyte serum free medium supplemented with bovine pituitary extract in the absence of EGF (Life Technologies, Rockville, Md.) and incubated at 37° C. for two days. The cells were treated with various concentrations of VDR ligands (ten-fold serial dilution from 10,000 nM to 0.1 nM in triplicate), dissolved in 100 µl keratinocyte serum free medium supplemented with bovine pituitary extract in the absence of EGF and incubated at 37° C. for 72 hr. […] Potency values (IC50) values were determined as the concentration (nM) of compound that elicited a half-maximal response.

rat osteocalcin promoter = experiment: OCN (osteocalcin) promoter assay in RG-15 (ROS 17/2.8) cells; assay type: cell-based
Method in brief: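 Rat osteoblast-like RG-15 (ROS 17/2.8) cells stably carry the rat osteocalcin promoter fused to luciferase. They were treated with compounds for 48 h in medium with 2% FBS and 0.01% DMSO. EC50 was derived from luciferase activity in cell lysates.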

[2] = Mouse hypercalcemia assay (six day, serum ionized calcium); assay type: in vivo
Protocol: 5. The Mouse Hypercalcemia test is described in the “Assay” section of the Description, infra.
4. The Mouse Hypercalcemia Assay
The Mouse Hypercalcemia Assay is a six day hypercalcemia test for toxicity and selectivity. Acceptable test results are levels greater than 300 μg/kg/day. Preferred assay results are levels greater than 1000 μg/kg/day.
(4) Materials and Method for The Mouse Hypercalcemia Assay:
Weanling, virus-antibody-free, five to six weeks old female DBF mice (Harlan, Indianapolis, Ind.) are used for all the studies. Animals are allowed to acclimate to local vivarium conditions for 2 days. […] The animals then are divided into groups with 4-5 mice per group. Different doses of test compounds prepared in 10% Ethanol and 90% sesame oil are administered to mice orally via gavage for 6 days. 1α-25(OH)2D3 0.5 μg/kg/d was also given to one group of mice as the positive control. Serum ionized calcium is evaluated at 6 hours after the last dosing under isoflurane anesthesia by Ciba-Corning Ca++/PH Analyzer, (Model 634, Chiron Diagnostics Corp., East Walpole, Mass.). Raw data of group differences is assessed by analysis of variance (ANOVA) using Fisher's protected least significant difference (PLSD) where the significance level was P<0.05.

[3] = Homo sapiens, Keratinocyte, 72 h

Compound	IC50 ([1]; Homo sapiens, PBMC) [nM]	IC50 (KERtr cells; [3]) [nM]	EC50 (rat osteocalcin promoter; Rattus norvegicus) [nM]	Mouse Hypercal [2] [µg/kg/day]	IC50 [1] [nM]	EC50 (rat osteocalcin promoter) [nM]	IC50 (KERtr cells) [nM]
CCC(CC)(c1ccc(OS(C)(=O)=O)c(C)c1)c1cc(C)c(CCC(O)C(C)(C)C)s1 (single isomer, unassigned) [Ex. 19A]	60	18	–	–	–	–	–
CCC(CC)(c1ccc(CCC(=O)O)c(C)c1)c1cc(C)c(CCC(O)C(C)(C)C)s1 (single isomer, unassigned) [Ex. 30B]	120	–	–	–	–	–	–
CCc1cc(C(CC)(CC)c2ccc(C(=O)O)s2)ccc1OCC(C)(O)C(C)(C)C (single isomer, unassigned) [Ex. 108, 3′-[4-(2-hydroxy-2,3,3-trimethylbutoxy)-3-ethylphenyl]-3′-[5-carboxy-thiophen-2-yl]pentane]	597	66	5.25	300	–	–	–
CCc1cc(C(CC)(CC)c2ccc(C(=O)N[C@@H](C)C(=O)O)s2)ccc1OCC(C)(O)C(C)(C)C (single isomer, unassigned) [Ex. 110, d-3′-[4-(2-hydroxy-2,3,3-trimethylbutoxy)-3-ethylphenyl]-3′-[5-(carboxy-1-ethylamino)carbonyl-thiophen-2-yl]pentane]	288	9.5	0.225	<300	–	–	–
C=C1/C(=C\C=C2/CCC[C@]3(C)[C@@H]([C@H](C)CCCC(C)(C)O)CC[C@@H]23)C[C@@H](O)C[C@@H]1O [AA, 1α,25-dihydroxyvitamin D3, reference compound]	–	–	–	0.06	1.2	5	–
CCC(CC)(c1ccc(OCC(=O)C(C)(C)C)c(C)c1)c1cc(C)c(CS(C)(=O)=O)s1 [Ex. 9]	98	129	46.6	–	–	–	–
CCC(CC)(c1ccc(OCC(O)C(C)(C)C)c(C)c1)c1cc(C)c(C(=O)N[C@@H](C)C(=O)O)s1 (stereo partly drawn) [Ex. 65, L-2-[(5-{1-Ethyl-1-[4-(2-hydroxy-3,3-dimethyl-butoxy)-3-methyl-phenyl]-propyl}-3-methyl-thiophene-2-carbonyl)-amino]-propionic acid]	41	–	–	300	–	3.4	56
CCC(CC)(c1ccc(OCC(O)C(C)(C)C)c(C)c1)c1cc(C)c(S(=O)(=O)NCC(=O)O)s1 (stereo not drawn) [Ex. 138]	110	102	–	–	–	–	–
CCC(CC)(c1ccc(OCC(O)C(C)(C)C)c(C)c1)c1cc(C)c(-c2n[nH]c(=O)o2)s1 (stereo not drawn) [Ex. 170]	100	–	–	–	–	–	–
